# Values of other authors, collected in patent US11160278B2, “Use of active substances for controlling virus infection in plants” (Bayer CropScience Aktiengesellschaft, priority 2016, dated 2021).
# What was measured:
# [1] = system: tobacco mosaic virus (TMV); conditions: also NahG transgenic tobacco
# [2] = system: Pseudomonas syringae pv tabaci
structure (smiles),measurement,setting,value
COC(=O)N(OC)c1ccccc1COc1ccn(-c2ccc(Cl)cc2)n1 [Pyraclostrobin],resistance of tobacco against infection by TMV,[1],enhance the resistance
same,resistance of tobacco against infection by Pseudomonas syringae pv tabaci,[2],enhance the resistance
